Test results: patent US12098145B2 (Libra Therapeutics, Inc., priority 2022, dated 2024)
Where two headings read alike, the source gives them in different places.

Legend:
TFEB = TFEB translocation assay (TFEB reporter in U2OS cells, imaging); type: cell-based; conditions: Homo sapiens; U2OS cell line with TFEB reporter, 2 hours incubation, nucleus to cytoplasm ratio, normalized to Torin-1; read-out: TFEB Translocation pEC50 (converted)
Summary of the method: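 U2OS cells stably expressing mRFP-fused TFEB reporter, switched to Opti-MEM then treated 2 h at 37 °C with compounds (0.5% DMSO, 0.015% Tween 80). Hoechst-stained, PFA-fixed cells imaged at 20×; nucleus/cytoplasm intensity ratio per well normalized to Torin-1 (100%) and DMSO (0%).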

TRPML1 = biological target: T1, TRPML1 (Homo sapiens, UniProt Q9GZU1); assay: Cellular TRPML1 assay (FLIPR, GCaMP6f calcium read-out); type: cell-based
T1 construct: expressed in transfected cells; host or cells: HEK T-REx cells stably expressing GCaMP6f and TRPML1
Summary of the method: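 HEK T-REx cells stably expressing TRPML1 and GCaMP6f, seeded 24 h before in Optimem + 0.5% FBS. After ~10 min pre-incubation at room temperature, compounds in Ca2+-free Tyrode's buffer were injected on FLIPR Tetra (final DMSO 0.5%). Calcium fluorescence kinetics followed for 300 s.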

[1] = HEKT-REx/GCaMP6f/TRPML1 cells, FLIPR TETRA, kinetic response over 300 seconds, read-out: TRPML1 FLIPR pEC50 (converted)

T1 sequence (Q9GZU1 whole entry): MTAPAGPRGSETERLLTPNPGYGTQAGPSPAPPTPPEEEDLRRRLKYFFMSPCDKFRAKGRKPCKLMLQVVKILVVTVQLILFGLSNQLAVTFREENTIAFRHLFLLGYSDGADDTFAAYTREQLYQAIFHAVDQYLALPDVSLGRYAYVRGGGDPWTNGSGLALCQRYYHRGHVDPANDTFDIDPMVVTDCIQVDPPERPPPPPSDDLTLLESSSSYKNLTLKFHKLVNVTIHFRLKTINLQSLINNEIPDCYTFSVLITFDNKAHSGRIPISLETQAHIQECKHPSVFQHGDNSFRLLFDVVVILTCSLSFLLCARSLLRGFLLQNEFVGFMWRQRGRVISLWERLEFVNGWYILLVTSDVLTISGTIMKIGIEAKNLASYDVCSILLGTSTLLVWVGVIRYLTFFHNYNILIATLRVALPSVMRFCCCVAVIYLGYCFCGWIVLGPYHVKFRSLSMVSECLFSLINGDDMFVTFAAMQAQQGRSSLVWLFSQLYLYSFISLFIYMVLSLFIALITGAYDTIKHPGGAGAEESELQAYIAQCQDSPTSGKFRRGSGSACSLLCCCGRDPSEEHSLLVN

SMILES | EC50 (TFEB) | EC50 (TRPML1; [1]) | EC50 (TRPML1)
O=C(Nc1ccc(N2CCCCC2)c(F)c1)c1nc(N2CCC3(COC3)C2)oc1CC(F)(F)F [Example 33, N-(3-fluoro-4-(piperidin-1-yl)phenyl)-2-(2-oxa-6-azaspiro[3.4]octan-6-yl)-5-(2,2,2-trifluoroethyl)oxazole-4-carboxamide] | 1000 to 10000 nM | 10 to 1000 nM | 
O=C(Nc1ccc(O[C@@H]2C[C@@H]3C[C@@H]3C2)c(F)c1)c1nc(N2CCC3(COC3)C2)oc1CC(F)(F)F [Example 73, N-(4-{cis-bicyclo[3.1.0]hexan-3-yloxy}-3-fluorophenyl)-2-{2-oxa-6-azaspiro[3.4]octan-6-yl}-5-(2,2,2-trifluoroethyl)oxazole-4-carboxamide] | 10 to 1000 nM | 10 to 1000 nM | 
O=C(Nc1cc(F)c(O[C@@H]2C[C@@H]3C[C@@H]3C2)c(F)c1)c1nc(N2CCC3(CC3)C2)oc1CCF [Example 288, N-(4-(cis-bicyclo[3.1.0]hexan-3-yloxy)-3,5-difluorophenyl)-5-(2-fluoroethyl)-2-(5-azaspiro[2.4]heptan-5-yl)oxazole-4-carboxamide] | 10 to 1000 nM | 10 to 1000 nM | 
CCc1oc(N2CC(CC)(OC)C2)nc1C(=O)Nc1cc(C)c(O[C@@H]2C[C@@H]3C[C@@H]3C2)c(F)c1 [Example 227, N-(4-(cis-bicyclo[3.1.0]hexan-3-yloxy)-3-fluoro-5-methylphenyl)-5-ethyl-2-(3-ethyl-3-methoxyazetidin-1-yl)oxazole-4-carboxamide] | 10 to 1000 nM | 10 to 1000 nM | 
CCC1(OC)CN(c2nc(C(=O)Nc3cc(F)c(O[C@@H]4C[C@@H]5C[C@@H]5C4)c(F)c3)c(CN(C)C)o2)C1 [Example 303, N-(4-(cis-bicyclo[3.1.0]hexan-3-yloxy)-3,5-difluorophenyl)-5-((dimethylamino)methyl)-2-(3-ethyl-3-methoxyazetidin-1-yl)oxazole-4-carboxamide] | 10 to 1000 nM | 10 to 1000 nM | 
O=C(Nc1ccc(N2CC3CC(C3)C2)c(F)c1)c1nc(N2CCC3(COC3)C2)oc1CC(F)(F)F [Example 202, N-(4-(3-azabicyclo[3.1.1]heptan-3-yl)-3-fluorophenyl)-2-(2-oxa-6-azaspiro[3.4]octan-6-yl)-5-(2,2,2-trifluoroethyl)oxazole-4-carboxamide] | 10 to 1000 nM |  | 10 to 1000 nM
O=C(Nc1cc(F)c(OC2CC3CC(C3)C2)c(F)c1)c1nc(N2CCCC2)oc1CCF (stereo not shown) [Example 279, N-(4-(bicyclo[3.1.1]heptan-3-yloxy)-3,5-difluorophenyl)-5-(2-fluoroethyl)-2-(pyrrolidin-1-yl)oxazole-4-carboxamide] | 10 to 1000 nM | 10 to 1000 nM | 
CCc1oc(N2CC(C)(OC)C2)nc1C(=O)Nc1ccc(O[C@@H]2C[C@@H]3C[C@@H]3C2)c(Cl)c1 [Example 249, N-(4-(cis-bicyclo[3.1.0]hexan-3-yloxy)-3-chlorophenyl)-5-ethyl-2-(3-methoxy-3-methylazetidin-1-yl)oxazole-4-carboxamide] | 10 to 1000 nM | 10 to 1000 nM | 
Cc1oc(N2CCOCC2)nc1C(=O)Nc1ccc(N2CCCCC2)c(F)c1 [Example 116, N-(3-fluoro-4-(piperidin-1-yl)phenyl)-5-methyl-2-morpholinooxazole-4-carboxamide] | 10000 to 100000 nM | 10000 to 100000 nM | 
O=C(Nc1cc(F)c(O[C@@H]2C[C@@H]3C[C@@H]3C2)c(F)c1)c1nc(N2CC3(CCCO3)C2)oc1CC(F)(F)F [Example 173, N-(4-(cis-bicyclo[3.1.0]hexan-3-yloxy)-3,5-difluorophenyl)-2-(5-oxa-2-azaspiro[3.4]octan-2-yl)-5-(2,2,2-trifluoroethyl)oxazole-4-carboxamide] | 10 to 1000 nM | 10 to 1000 nM | 
CCc1oc(N2CC(CC)(OC)C2)nc1C(=O)Nc1cc(F)c(N2CC3CC(C3)C2)c(F)c1 [Example 254, N-(4-(3-azabicyclo[3.1.1]heptan-3-yl)-3,5-difluorophenyl)-5-ethyl-2-(3-ethyl-3-methoxyazetidin-1-yl)oxazole-4-carboxamide] | 10 to 1000 nM |  | 10 to 1000 nM
